This is an account of results in US8637310B2, “Use of a rock inhibitor to sustain primary human keratinocytes in a proliferative state” (The United States of America, as represented by the …, priority 2008, dated 2014).

One data set relates to HPV31. Kind of data set: HPV31 genome copy number in CIN612 9E cells. It is filed as cell-based, human papillomavirus. Conditions: 10 μM Y-27632, FIG. 8. How it is done:
The 9E and W12 (20863 clone) cell lines were cultured in F-media on irradiated J2 feeder cells. For the Y-27632 experiments they were cultured in F-medium with or without 10 μM Y-27632 and continually passed for the times indicated.
Cloned viral genomes were cleaved with restriction enzymes to separate viral and vector sequences. The genomes were religated at a concentration of 5 μg/ml to favor intramolecular circularization. Prior to electroporation, J2 feeder cells were removed from the keratinocytes by versene treatment and the HFKs were collected by trypsinization. HFKs (1×10^6) were electroporated with 2 μg of re-circularized viral genomic DNA using the Amaxa Nucleofector II electroporator and the Human Keratinocyte Nucleofector Kit. The Amaxa program optimized for cell survival was used according to the manufacturer's specifications. Cells were removed from the cuvettes immediately following electroporation, and seeded onto 10 cm plates containing irradiated feeder cells and F-medium, in the presence or absence of 10 μM Y-27632, as indicated. At various times post-transfection, low molecular weight DNA was isolated by a modified Hirt extraction procedure (Ustav et al., EMBO J. 10:449-457, 1991). For Southern blot analysis, the isolated DNA was linearized with EcoRI or BamHI, depending on cloning site for each viral genome, and DpnI, to digest any unreplicated input DNA. […]

A further data set deals with foreskin keratinocytes. Description: Foreskin keratinocytes grown without fibroblast feeder cells, on plastic, serum-free medium. To be noted: no fibroblast feeder cells. It is filed as cell-based, human. As to the method: Culturing keratinocytes in the presence of fibroblast feeder cells increases the lifespan of keratinocytes (Fu et al., Cancer Res. 63: 7815-7824, 2003; Rheinwald et al., Mol. Cell Biol. 22: 5157-5172, 2002) and might contribute to the observed immortalization by Y-27632. Therefore, the effect of Y-27632 on foreskin keratinocytes grown in the absence of fibroblast feeder cells, cultured on plastic and in serum-free medium was analyzed. […] Therefore, co-culture with feeder fibroblasts is required in concert with ROCK inhibition to immortalize keratinocytes.

The next data set relates to p53 pathway. Kind of data set: Growth arrest assay (DNA damage response to 0.5 nM actinomycin D). Format: cell-based, human. Conditions: 0.5 nM actinomycin D 24 hours; Y-27632-treated HFKs at P122; FIG. 12B. How it is done:
Keratinocytes (1-2×10^6) were seeded on a 10 cm plate. Forty-eight hours later they were treated with 0.5 nM actinomycin D for 24 hours. Protein extracts were prepared, as described above, and analyzed for p53 and p21 protein levels.

Data set [1] deals with human vaginal keratinocytes (HVK). Description: Long-term culture / immortalization of primary human vaginal keratinocytes on feeder cells. It is filed as cell-based. Conditions: 10 μM Y-27632; FIG. 9. As to the method: (§1) The HPV18 cell line was established by introducing the HPV18 genome into primary HFKs using the Amaxa human keratinocyte nucleofection system. Primary human cervical keratinocytes (HCKs), human vaginal keratinocytes (HVKs), the HPV18 cell lines and the HPV31 positive cell line (CIN-612 9E) were grown in the presence or absence of 10 μM Y-27632 (Alexis Biochemicals), as indicated. Cells were subcultured by removing the fibroblast feeder cells with versene and keratinocytes were collected by trypsinization. At each pass, 2×10^5 cells were plated on a 10 cm plate of J2 feeder cells. Population doubling was calculated as: PD=3.32(log(# cells harvested/# cells seeded)). Immunodetection

In a further data set the test system is airway epithelial cells. Conditions: Moore et al. 2004; cited from earlier work.
Data set [2] deals with foreskin keratinocyte line (strain a). Kind of data set: Karyotype analysis of immortalized cells. It is filed as cell-based, human. Conditions: HFK strain a, 95 passages in Y-27632. How it is done: This was conducted by Molecular Diagnostic Services, Inc. San Diego, Calif. Metaphase spreads were prepared and stained to observe chromosomal G bands.
Twenty metaphase spreads of each cell line was analyzed and five complete karyotypes were prepared from each.

Data set [3] relates to human cervical keratinocytes (HCK). Description: Long-term culture / immortalization of primary human cervical keratinocytes on feeder cells. It is filed as cell-based. To be noted: 10 μM Y-27632; FIG. 9. How it is done:
as §1

The test system of the next data set is Myc. Kind of data set: Immunodetection of Myc. Format: cell-based, human. As to the method:
(§2) Proteins were extracted in 2% sodium dodecyl sulfate (SDS), 50 mM Tris-HCl (pH 6.8), 10% glycerol supplemented with inhibitors Complete and PhosphoSTOP (Roche, Indianapolis, Ind.). Protein samples were resolved on NuPage gels, electrotransferred to Immobilon-P membrane (Millipore, Billerica, Mass.), and probed with the relevant antibodies before detection by chemiluminescence. Monoclonal antibody against p53 (DO-1) was obtained from Santa Cruz Biotechnology (Santa Cruz, Calif.). Monoclonal antibody against α-tubulin (B-5-1-2) was obtained from Sigma-Aldrich. Polyclonal antibodies against Myc (N-262), p21 (C-19), and p16 (C-20) were obtained from Santa Cruz Biotechnology.

The subject of the next data set is p53. Kind of data set: Immunodetection of p53 and p21 during culture. It is filed as cell-based, human. To be noted: keratinocytes cultured with Y-27632. How it is done: as §2
Another data set deals with CIN612 9E cells. Description: Growth of CIN1-derived cell line CIN612 9E. Format: cell-based, human. Conditions: 10 μM Y-27632; 44 days; FIG. 7. How it is done:
The 9E and […] (20863 clone) cell lines were cultured in F-media on irradiated J2 feeder cells. For the Y-27632 experiments they were cultured in F-medium with or without 10 μM Y-27632 and continually passed for the times indicated.

Data set [4] has as its system primary human foreskin keratinocytes. Conditions: cited from earlier work.
A further data set concerns telomeres. Description: Telomere length assay (real-time PCR). It is filed as cell-based, human. As to the method: Genomic DNA was extracted from cells and the average telomere length was assessed by a modified method of the real-time PCR-based telomere assay described previously (Cawthon et al., Nucleic Acids Res. 30: e47, 2002; Cawthon, Nucleic Acids Res. 37: e21, 2009). Briefly, the telomere repeat copy number to single gene copy number (T/S) ratio was determined using a Bio-Rad IQ5 thermocycler. Genomic DNA (5 ng) was subjected to PCR reactions and detected with SYBR Green Super Mix (Bio-Rad). The primers for telomere length and HBG1 (a single copy gene) were as follows. Reaction conditions were: 1 cycle, 95° C., 5 minutes; 41 cycles, 95° C., 15 seconds,; 1 cycle, 60° C. for 45 seconds. All reactions were carried out in triplicate and compared to a standard curve of 0, 0.2, 1, 5, 25 and 125 ng genomic DNA (telomere length 10.4 kb) from Roche Telo-kit. The T/S ratio (dCt) for each sample was calculated by normalizing the average HBG Ct value to the average telomere Ct value.
In general terms: Real-time PCR tracks product formation cycle by cycle.

In the case of `CC(N)[C@H]1CC[C@H](C(=O)Nc2ccncc2)CC1` (single isomer, unassigned; (+)) [Y-27632, (+)-trans-N-(4-Pyridyl)-4-(1-aminoethyl)-cyclohexanecarboxamide], in the data set with HPV31, the HPV31 copy number result is listed as “remained constant”. In the data set with foreskin keratinocytes, the “proliferation in the absence of feeder cells” value is listed as “somewhat increased proliferation”. Also, the “bypass of senescence in the absence of feeder cells” value in the data set on foreskin keratinocytes (repeated experiments) is listed as “did not bypass senescence”. In addition, the “DNA damage response (p53 and p21 upregulation)” value in the data set with p53 pathway is reported as “normal DNA damage response”. Besides, in data set [1], the bypass of senescence result is reported as “efficiently bypassed senescence with no observed decline in growth rate” and the cellular proliferation entry is recorded as “dramatic increase in cellular proliferation”. Moreover, the “effect on airway epithelial cells” value in the data set on airway epithelial cells was “induces membrane ruffling, loss of actin stress fibers and apoptosis”. In addition, the “karyotype of immortalized cells” value in [2] is “identical to that of the donor cells”. In addition, in data set [3], the bypass of senescence entry is reported as “efficiently bypassed senescence with no observed decline in growth rate” and the cellular proliferation entry is “dramatic increase in cellular proliferation”. Moreover, the Myc protein levels entry in the data set with Myc (immediately after culture with Y-27632, HFK, HCK, HVK, FIG. 12A) is listed as “induced transiently”. Also, the “level of Myc” value with Myc (very late passages (p107), FIG. 16) is recorded as “equivalent to that of an HPV31-containing cell line”. For the same compound, in the data set with p53, the p21 induction entry is reported as “not induced” and the p53 protein levels entry is reported as “gradually increase”. In addition, the growth rate entry in the data set with CIN612 9E cells was “no differences in growth rate were observed”. In data set [4], the colony forming ability result is on record as “increase the colony forming ability”. Also, the “relative length of telomeres” value in the data set on telomeres (passage 50 to 120) is recorded as “became stable”. In the data set with telomeres (with passage in Y-27632, FIG. 11B), the “relative length of telomeres” value was “became progressively shorter with passage”.
